The source of these data is US20160339079A1, “TRANSMUCOSAL AND TRANSEPITHELIAL DRUG DELIVERY SYSTEM” (UNIVERSITY OF BIRMINGHAM, priority 2014, published 2016).

For series [1], the system named is Retinal Ganglion Cells. Type of series: cell-based, rats. The method, then:
The cells were studied against several cell lines for any cytotoxic effects they might induce. Dissociated retinal cultures were prepared from rats and plated onto culture plates. The cells were treated with nanosome peptide and then incubated for 72 hours and fixed with formaldehyde. The cells were stained with β3 tubulin and imaged on the fluorescence microscope. The positive cells were counted and comparisons were taken.

Series [2] concerns gram positive and gram negative bacteria. The series can be described thus: Broad spectrum antibacterial activity. Conditions: both gram positive and gram negative bacteria. Format: cell-based. The method, then: It is effective at killing both gram positive and gram negative bacteria and was particularly selective against pseudomonas aeruginosa with a MIC of 0.03 mg/mL.
Series [3] relates to primary rat meningeal fibroblast cells. Format: cell-based, Sprague-Dawley Rats. The protocol:
The nanosome toxicity was also tested against primary rat meningeal fibroblast cells. The cells were isolated from Sprague-Dawley Rats. The leptomeninges was removed from the rat and the meningeal fibroblast cells were isolated from the tissue. The cells were then plated out and treated with nanosome. The cell media was supplemented with resazurin for 2 hours and then harvested and the media fluorescence read at 570 nm. The cell samples were then frozen in deionised water for DNA analysis (FIG. 7). […] This supports the work carried out in the retinal cultures that the nanosomes are not toxic.

On to `N=C(N)NCCC[C@H](NC(=O)[C@H](CCCNC(=N)N)NC(=O)[C@H](CCCNC(=N)N)NC(=O)[C@H](CCCNC(=N)N)NC(=O)[C@H](CCCNC(=N)N)NC(=O)[C@H](CCCNC(=N)N)NC(=O)CCCCCNC(=S)Nc1ccc2c(c1)C(=O)OC21c2ccc(O)cc2Oc2cc(O)ccc21)C(=O)O` [nanosome, RRRRRR-Linker-FITC], for which the “β3 tubulin positive cells, treated wells versus control” value in series [1] is reported as “no significant difference”. The killing of bacteria entry in series [2] is given as “highly effective broad spectrum antibacterial agent”. In series [3], the “effect on the number of cells in the sample (DNA assay)” value was “did not have a significant effect”.
